{"source": "paper PMC5996347", "about": "“2-Mercapto-Quinazolinones as Inhibitors of Type II NADH Dehydrogenase and Mycobacterium tuberculosis: Structure–Activity Relationships, Mechanism of Action and Absorption, Distribution, Metabolism, and Excretion Characterization” (ACS Infectious Diseases, 2018)", "key": {"[1]": {"system": "HepG2", "experiment": "cells", "settings": "Homo sapiens, HepG2, read-out: HepG2 IC50"}, "[2]": {"experiment": "physchem", "type": "physicochemical", "settings": "water, kinetic from dmso stock, Kinetic solubility", "method": "The aqueous solubility of the test compounds was measured using laser nephelometry. Compounds were subject to serial dilution from 10 to 0.5 mM in DMSO. An aliquot was then mixed with Milli-Q water to obtain an aqueous dilution plate with a final concentration range of 250–12 μM, with a final DMSO concentration of 2.5%. Triplicate aliquots were transferred to a flat bottomed polystyrene plate which was immediately read on the NEPHELOstar (BMG Lab Technologies). The amount of laser scatter caused by insoluble particulates (relative nephelometry units, RNU) was plotted against compound concentration using a segmental regression fit, with the point of inflection being quoted as the compounds aqueous solubility (μM)."}, "[3]": {"system": "piniBAC reporter strain", "type": "cell-based, Mycobacterium tuberculosis", "settings": "upregulation of iniBAC promoter"}, "[4]": {"system": "M. tuberculosis H37Rv", "experiment": "microbe, parasite or virus in culture", "type": "cell-based", "settings": "Mycobacterium tuberculosis"}, "[5]": {"system": "wild-type MTb H37Rv", "experiment": "CFU after 7 days of treatment, wild-type", "type": "cell-based, Mycobacterium tuberculosis", "settings": "treatment at MIC concentrations", "method": "Figure 4 Mtb lacking the alternative type II NADH dehydrogenase encoded by ndhA was more susceptible to compound 1. Colony-forming units (CFU) after 7 days of treatment as compared to CFU at start of drug treatment (inoculum). Unpaired t test comparison between WT and ΔndhA at 0.5 μM compound 1: two-tailed P-value = 0.0023."}, "[6]": {"experiment": "Mouse pharmacokinetics", "type": "in vivo, female C57Bl/6 mice", "settings": "female", "method": "Test compound was dosed as a bolus solution intravenously at 3 mg free base/kg (dose volume: 5 mL/kg; dose vehicle: 10% DMSO; 40% PEG400; 50% saline) to female C57Bl/6 mice (n = 3) or dosed orally by gavage as a suspension at 10 or at 5, 30, or 100 mg free base/kg (dose volume: 10 mL/kg; dose vehicle: 1.0% carboxy methyl cellulose) to female C57Bl/6 mice (n = 3/dose level). Blood samples were taken from each mouse tail vein at predetermined time points postdose, mixed with nine volumes of distilled water, and stored frozen until UPLC-MS/MS analysis. Pharmacokinetic parameters were derived from the blood concentration time curve using PK Solutions software v 2.0 (Summit Research Services, USA)."}, "[7]": {"system": "ndhA mutant", "type": "cell-based", "settings": "results not shown"}, "[8]": {"settings": "mouse liver microsomes"}, "[9]": {"experiment": "Calculated properties (StarDrop)"}, "[10]": {"system": "M. tuberculosis H37Rv", "experiment": "Extracellular flux analysis (oxygen consumption rate)", "settings": "1 at 39 μM, 7 at 45 μM"}, "[11]": {"system": "M. tuberculosis H37Rv", "experiment": "H37Rv MIC in GAST medium", "type": "cell-based, Mycobacterium tuberculosis", "settings": "Mycobacterium tuberculosis, H37RV"}, "[12]": {"experiment": "physchem", "type": "physicochemical", "settings": "pH 7.4", "method": "The chromatographic hydrophobicity index (CHI) was determined according the method previously described.[43],[44] Briefly, test compounds were prepared as 0.5 mM solutions in 50:50 acetonitrile/water and analyzed by reversed-phase HPLC-UV (wavelength 254 nm) using a Phenomenex Luna C18 100 Å, 150 × 4.6 mm, 5 μm column with a gradient of aqueous phase (50 mM ammonium acetate (pH 7.4)) and mobile phase (acetonitrile). By plotting the retention time of a set of reference compounds against known CHI values, the CHI value of test compounds was calculated according to their retention time."}, "[13]": {"biological_target": "T1, recombinant MBP-MtNdh (MTb NDH-2) (Mycobacterium tuberculosis, UniProt P95160)", "T1 construct": "The ORF corresponding to Rv1854c was codon optimized for E. coli; made in house; host or cells: E. coli BL21 (DE3) pLysS", "T1 sequence (P95160 whole entry)": "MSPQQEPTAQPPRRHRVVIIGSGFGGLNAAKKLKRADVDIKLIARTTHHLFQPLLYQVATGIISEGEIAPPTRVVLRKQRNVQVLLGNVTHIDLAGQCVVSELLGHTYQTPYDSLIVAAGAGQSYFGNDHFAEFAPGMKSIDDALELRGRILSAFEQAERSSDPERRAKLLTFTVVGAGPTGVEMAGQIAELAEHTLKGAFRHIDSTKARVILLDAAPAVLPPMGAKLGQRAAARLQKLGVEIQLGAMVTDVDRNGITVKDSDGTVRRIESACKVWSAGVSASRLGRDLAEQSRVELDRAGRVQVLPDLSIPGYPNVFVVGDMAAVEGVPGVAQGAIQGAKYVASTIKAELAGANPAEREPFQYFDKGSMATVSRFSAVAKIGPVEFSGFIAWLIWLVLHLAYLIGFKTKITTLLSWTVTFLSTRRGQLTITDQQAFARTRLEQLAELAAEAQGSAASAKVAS", "experiment": "Ndh activity assay (NADH oxidation at 340 nm)", "type": "biochemical"}, "[14]": {"system": "cyd knockout strain (cydC::aph)", "type": "cell-based, Mycobacterium tuberculosis"}, "[15]": {"system": "MTb H37Rv in J774 macrophages", "experiment": "Activity against MTb in infected macrophages", "type": "cell-based, Mycobacterium tuberculosis", "settings": "7 days of drug treatment, CFU", "method": "Figure S7. […] J774 macrophages in\n24w plates (500,000 cells per well) were infected with MTb H37Rv at an MOI of 1:1 for 24 hours. Infected cells were washed three times and supplemented with macrophage growth medium with compounds at the indicated concentrations or the DMSO solvent. Cell medium was replenished every 3 days and cells lyzed after 7 days of drug treatment and plated on 7H11/OADC plates for CFU enumeration.\n(1 picture or pasted object on this page, not shown here)"}, "[16]": {"system": "HepG2"}, "[17]": {"system": "MTb H37Rv", "experiment": "Intracellular ATP levels (BacTiter-Glo)", "settings": "24 h drug exposure"}, "[18]": {"settings": "C57Bl/6, mouse, in vivo, po, 10 mg/kg"}}, "data": [{"compound": "O=C(CSc1nc2ccccc2c(=O)[nH]1)NC1CCCCC1", "note": "[Compound 1, N-Cyclohexyl-2-((4-oxo-3,4-dihydroquinazolin-2-yl)thio)acetamide]", "values": [{"measurement": "IC50", "setting": "[1]", "result": "> 50000", "unit": "nM"}, {"measurement": "solubility kinetic", "setting": "[2]", "result": 83, "unit": "µM"}, {"measurement": "pini-LUC reporter", "setting": "[3]", "result": "Not likely cell wall inhibitor"}, {"measurement": "MIC", "setting": "[4]; read-out: 7H9-ADC MIC", "result": 0.6, "unit": "µM"}, {"measurement": "MIC", "setting": "[4]; read-out: 7H9-ADC MIC in ng/mL", "result": 190, "unit": "ng/mL"}, {"measurement": "Growth of wild-type MTb H37Rv over 7 days", "setting": "[5]", "result": "could not fully suppress growth"}, {"measurement": "Clb", "setting": "[6]; C57Bl/6, mouse, in vivo", "result": 23, "unit": "mL/min/kg"}, {"measurement": "Vd", "setting": "[6]; C57Bl/6, mouse, in vivo", "result": 0.8, "unit": "L/kg"}, {"measurement": "bioavailability", "setting": "[6]; C57Bl/6, mouse, in vivo", "result": 46, "unit": "%"}, {"measurement": "AUC(0-t)", "setting": "[6]; [18]", "result": 2610, "unit": "ng·h/mL"}, {"measurement": "Cmax", "setting": "[6]; [18]", "result": 748, "unit": "ng/mL"}, {"measurement": "half-life", "setting": "[6]; C57Bl/6, whole blood, C57 mouse PK at 3 iv and 10 po (mg/kg), 1 free base, 7 HCl salt", "result": 1.5, "unit": "h"}, {"measurement": "MIC to ndhA mutant strain compared with WT", "setting": "[7]", "result": "indistinguishable from WT cells"}, {"measurement": "Mouse microsomal metabolite identification", "setting": "[8]", "result": "significant oxidation of the cyclohexyl and quinazolin-4(3H)-one rings as well as cleavage of the amide bond"}, {"measurement": "PFI", "setting": "[9]", "result": 4.7}, {"measurement": "Effect on maximal respiration after CCCP uncoupling", "setting": "[10]; CCCP 3 μM, compared to untreated control", "result": "significantly diminished maximal respiration"}, {"measurement": "Effect on basal MTb OCR", "setting": "[10]; ~45 min, glucose or palmitate", "result": "minimal effect"}, {"measurement": "MIC", "setting": "[11]; read-out: GAST MIC", "result": 0.3, "unit": "µM"}, {"measurement": "MIC", "setting": "[11]; read-out: GAST MIC in ng/mL", "result": 95, "unit": "ng/mL"}, {"measurement": "chromatographic logD", "setting": "[12]", "result": 1.8}, {"measurement": "IC50", "setting": "[13]; NADH 250 μM, Q2 40 μM, mean ± SD, Figure 6 inset, read-out: IC50 against MBP-MtNdh", "result": "23 ± 8", "unit": "nM"}, {"measurement": "Ki", "setting": "[13]; varying Q2 or NADH, double reciprocal plots, read-out: Ki against MtNdh", "result": "30 to 40", "unit": "nM"}, {"measurement": "Mode of inhibition against MtNdh", "setting": "[13]; versus Q2 and NADH", "result": "noncompetitive mode of inhibition with both substrates"}, {"measurement": "Cyd KO reporter", "setting": "[14]", "result": "Not likely QcrB inhibitor"}, {"measurement": "Activity against MTb growing in infected macrophages", "setting": "[15]", "result": "lacked activity"}, {"measurement": "HepG2 cytotoxicity (in words)", "setting": "[16]", "result": "no noticeable cytotoxicity"}, {"measurement": "Cellular ATP levels in MTb", "setting": "[17]", "result": "depletion of cellular ATP levels"}]}]}
